Data on 16 compounds can be found in US10219516B2, “Molecules having pesticidal utility, and intermediates, compositions, and processes, related thereto” (priority 2015, dated 2019).

Structures are written as SMILES. Where two headings read alike, the source gives them in different places.

Common to all, as to format: in vivo
The subject of test [1] is Yellow Fever Mosquito (Aedes aegypti, AEDSAE). The test is described as follows: Bioassay on Yellow Fever Mosquito (YFM), 96-well plate larval assay. To be noted: for YFM (Biological Results, rating): Species YFM (Yellow Fever Mosquito); for YFM rating: Yellow Fever Mosquito, 96-well plate larval assay. A digest of the protocol:
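Compound stocks at 4000 ppm in DMSO were diluted with 90:10 water/acetone, and 15 μL aliquots were dispensed into six replicate plates. About 1-day-old larvae in liver-powder water were added per well. Plates were covered and held at room temperature for 3 days before each well was scored for mortality.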

For test [2], the system named is Green Peach Aphid (Myzus persicae, MYZUPE). The test is described as follows: Bioassay on Green Peach Aphid (GPA), foliar spray on infested cabbage seedlings. To be noted: 72 h. In outline: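 Cabbage seedlings (2-3 true leaves) infested with 20-50 wingless adult and nymph aphids one day before treatment; sprayed to runoff at 200 ppm in 0.025% Tween 20 water with 20% acetone/methanol, four pots per treatment. Held three days at about 25° C; live aphids counted, % control by Abbott's correction versus solvent check.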

Test [3] concerns Beet Armyworm (Spodoptera exigua, LAPHEG). Nature of the test: Bioassay on Beet Armyworm (BAW), 128-well diet tray assay. A digest of the protocol: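 In a 128-well format, eight wells per compound received a surface dose of 50 μg/cm^2 on artificial diet. After drying, each well got one to five second instar larvae, held at 25° C. with 14:10 photoperiod. Mortality percentages after five to seven days were averaged.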

In test [4] the test system is Cabbage Looper (Trichoplusia ni, TRIPNI). Nature of the test: Bioassay on Cabbage Looper (CL), 128-well diet tray assay. To be noted: Trichoplusia ni. A digest of the protocol: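 Second-instar larvae, one to five per well, were placed on artificial diet surface-treated with 50 μg/cm^2 test molecule applied in 90:10 acetone-water and dried, eight wells per molecule. Trays were covered, vented and held at 25° C., 14:10 light-dark for five to seven days; percent mortality per well was averaged.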

The mark [5] stands for this setting: foliar, Species GPA (Green Peach Aphid), read-out: GPA (Biological Results, rating).
[6] abbreviates: Species BAW (Beet Armyworm), read-out: BAW (Biological Results, rating).
Where [7] appears, read: Species CL (Cabbage Looper), read-out: CL (Biological Results, rating).
Where [8] appears, read: Green Peach Aphid, foliar spray on cabbage seedlings, read-out: GPA rating.
Setting [9] is: Beet Armyworm, 128-well diet tray assay, read-out: BAW rating.
Where [10] appears, read: Cabbage Looper, 128-well diet tray assay, read-out: CL rating.

Regarding `O=C(Nc1cccnc1F)c1cc(NC(=O)[C@H]2[C@H](c3cc(Cl)cc(Cl)c3)C2(Cl)Cl)ccc1Cl` (relative stereo) [F156, trans-2-Chloro-5-(2,2-dichloro-3-(3,5-dichlorophenyl)cyclopropane-1-carboxamido)-N-(2-fluoropyridin-3-yl)benzamide], in test [1], the “YFM (Biological Results, rating)” value is “B (More than 0-Less than 80)”. In test [2] (setting [5]), the pest or weed control at 200 µg/mL lay within 80 to 100%. Moreover, the pest or weed control at 50 µg/cm2 in test [3] (setting [6]) and in test [4] (setting [7]) was 50 to 100% each time.
`O=C(Nc1ccc(F)c(F)c1)c1cc(NC(=O)[C@H]2[C@H](c3cc(Cl)cc(Cl)c3)C2(Cl)Cl)ccc1Cl` (relative stereo) [F23, trans-2-Chloro-5-(2,2-dichloro-3-(3,5-dichlorophenyl)cyclopropane-1-carboxamido)-N-(3,4-difluorophenyl)benzamide]: the “YFM (Biological Results, rating)” value in test [1] is “A (80-100)”. The pest or weed control at 200 µg/mL in test [2] (setting [5]) lay within 0 to 80%. Also, the pest or weed control at 50 µg/cm2 in test [3] (setting [6]) and in test [4] (setting [7]) was 50 to 100% each time.
Turning to `Cc1cc(C#N)ccc1NC(=O)c1cc(NC(=O)[C@H]2[C@H](c3cc(Cl)cc(Cl)c3)C2(Cl)Cl)ccc1Cl` (relative stereo) [F36, trans-2-Chloro-N-(4-cyano-2-methylphenyl)-5-(2,2-dichloro-3-(3,5-dichlorophenyl)cyclopropane-1-carboxamido)benzamide], the “YFM (Biological Results, rating)” value in test [1] is listed as “A (80-100)”. Further, the pest or weed control at 200 µg/mL in test [2] (setting [5]) was in the range of 0 to 80%. The pest or weed control at 50 µg/cm2 in test [3] (setting [6]) and in test [4] (setting [7]) was 50 to 100% throughout.
In the case of `N#Cc1cc(F)ccc1NC(=O)c1cc(NC(=O)[C@H]2[C@H](c3cc(Cl)cc(Cl)c3)C2(Cl)Cl)ccc1Cl` (relative stereo) [PF67, trans-2-Chloro-N-(2-cyano-4-fluorophenyl)-5-(2,2-dichloro-3-(3,5-dichlorophenyl)cyclopropane-1-carboxamido)benzamide], the YFM rating result in test [1] is recorded as “B (More than 0-Less than 80)”. The pest or weed control at 200 µg/mL in test [2] (setting [8]) is 80 to 100%. Further, the pest or weed control at 50 µg/cm2 in test [3] (setting [9]) and in test [4] (setting [10]) was 50 to 100% throughout.
As for `N#Cc1cccc(NC(=O)c2cc(NC(=O)[C@H]3[C@H](c4cc(Cl)cc(Cl)c4)C3(Cl)Cl)ccc2Cl)c1` (relative stereo) [F21, trans-2-Chloro-N-(3-cyanophenyl)-5-(2,2-dichloro-3-(3,5-dichlorophenyl)cyclopropane-1-carboxamido)benzamide], the “YFM (Biological Results, rating)” value in test [1] is given as “A (80-100)”. Besides, in test [2] (setting [5]), the pest or weed control at 200 µg/mL was 0 to 80%. Also, the pest or weed control at 50 µg/cm2 in test [3] (setting [6]) and in test [4] (setting [7]) was 50 to 100% throughout.
For the compound `CN(C(=O)c1cc(NC(=O)[C@H]2[C@H](c3ccc(F)c(Cl)c3)C2(Cl)Cl)ccc1Cl)c1ccc(F)cc1` (relative stereo) [PF5, trans-2-Chloro-5-(2,2-dichloro-3-(3-chloro-4-fluorophenyl)cyclopropane-1-carboxamido)-N-(4-fluorophenyl)-N-methylbenzamide], the YFM rating result in test [1] is on record as “A (80-100)”. The pest or weed control at 200 µg/mL in test [2] (setting [8]) is 80 to 100%. Moreover, the pest or weed control at 50 µg/cm2 in test [3] (setting [9]) and in test [4] (setting [10]) was 50 to 100% in each case.
Take `CN(C(=O)c1cc(NC(=O)[C@H]2[C@H](c3cc(Cl)cc(Br)c3)C2(Cl)Cl)ccc1Cl)c1ccc(F)cc1` (relative stereo) [PF38, trans-5-(3-(3-Bromo-5-chlorophenyl)-2,2-dichlorocyclopropane-1-carboxamido)-2-chloro-N-(4-fluorophenyl)-N-methylbenzamide]: in test [1], the YFM rating result is “A (80-100)”. Further, in test [2] (setting [8]), the pest or weed control at 200 µg/mL is 80 to 100%. In addition, the pest or weed control at 50 µg/cm2 in test [3] (setting [9]) and in test [4] (setting [10]) was 50 to 100% in each case.
For `O=C(Nc1ccc(F)cc1F)c1cc(NC(=O)[C@H]2[C@H](c3cc(F)cc(Br)c3)C2(Cl)Cl)ccc1Cl` (relative stereo) [F423, 5-(trans)-(3-(3-Bromo-5-fluorophenyl)-2,2-dichlorocyclopropane-1-carboxamido)-2-chloro-N-(2,4-difluorophenyl)benzamide], the YFM rating result in test [1] is listed as “A (80-100)”. In addition, in test [2] (setting [8]), the pest or weed control at 200 µg/mL was in the range of 80 to 100%. Also, the pest or weed control at 50 µg/cm2 in test [3] (setting [9]) and in test [4] (setting [10]) was 50 to 100% each time.
With `O=C(Nc1ccc2nc(Cl)[nH]c2c1)c1cc(NC(=O)C2C(c3cc(Cl)cc(Cl)c3)C2(Cl)Cl)ccc1Cl` (stereo not drawn) [F438, 2-Chloro-N-(2-chloro-1H-benzo[d]imidazol-6-yl)-5-(trans)-2,2-dichloro-3-(3,5-dichlorophenyl)cyclopropane-1-carboxamido)benzamide], the YFM rating entry in test [1] is “B (More than 0-Less than 80)”. In addition, the pest or weed control at 200 µg/mL in test [2] (setting [8]) is 0 to 80%. Further, the pest or weed control at 50 µg/cm2 in test [3] (setting [9]) and in test [4] (setting [10]) was 50 to 100% in each case.
With `O=C(Nc1ccc(F)cc1F)c1cc(NC(=O)[C@H]2[C@H](c3cc(F)cc(C(F)(F)F)c3)C2(Cl)Cl)ccc1Cl` (relative stereo) [F412, 2-Chloro-5-(trans)-(2,2-dichloro-3-(3-fluoro-5-(trifluoromethyl)phenyl)cyclopropane-1-carboxamido)-N-(2,4-difluorophenyl)benzamide], in test [1], the YFM rating entry is given as “A (80-100)”. Also, the pest or weed control at 200 µg/mL in test [2] (setting [8]) lay within 80 to 100%. Also, the pest or weed control at 50 µg/cm2 in test [3] (setting [9]) and in test [4] (setting [10]) was 50 to 100% throughout.
On to `CN(C(=O)c1cc(NC(=O)[C@H]2[C@H](c3ccc(Cl)c(Cl)c3)C2(Cl)Cl)ccc1Cl)c1ccc(F)cc1` (relative stereo) [F53, trans-2-Chloro-5-(2,2-dichloro-3-(3,4-dichlorophenyl)cyclopropane-1-carboxamido)-N-(4-fluorophenyl)-N-methylbenzamide], for which, in test [1], the “YFM (Biological Results, rating)” value is reported as “A (80-100)”. Also, in test [2] (setting [5]), the pest or weed control at 200 µg/mL lay in the range of 80 to 100%. Moreover, the pest or weed control at 50 µg/cm2 in test [3] (setting [6]) and in test [4] (setting [7]) was 50 to 100% each time.
Take `O=C(Nc1ccc(F)cc1)c1cc(NC(=O)[C@@H]2[C@@H](c3cc(Cl)c(Cl)c(Cl)c3)C2(Cl)Cl)ccc1Cl` [F280, 2-Chloro-5-((1S,3S)-2,2-dichloro-3-(3,4,5-trichlorophenyl)cyclopropane-1-carboxamido)-N-(4-fluorophenyl)benzamide]: the “YFM (Biological Results, rating)” value in test [1] was “A (80-100)”. For the same compound, the pest or weed control at 200 µg/mL in test [2] (setting [5]) is 0 to 80%. In addition, the pest or weed control at 50 µg/cm2 in test [3] (setting [6]) and in test [4] (setting [7]) was 50 to 100% each time.
Take `O=C(Nc1cccnc1)c1cc(NC(=O)[C@H]2[C@H](c3cc(Cl)cc(Cl)c3)C2(Cl)Cl)ccc1Cl` (relative stereo) [F27, trans-2-Chloro-5-(2,2-dichloro-3-(3,5-dichlorophenyl)cyclopropane-1-carboxamido)-N-(pyridin-3-yl)benzamide]: the “YFM (Biological Results, rating)” value in test [1] is “A (80-100)”. Further, in test [2] (setting [5]), the pest or weed control at 200 µg/mL fell in the range of 0 to 80%. The pest or weed control at 50 µg/cm2 in test [3] (setting [6]) and in test [4] (setting [7]) was 50 to 100% in each case.
Turning to `CN(C(=O)c1cccc(NC(=O)[C@H]2[C@H](c3cc(Cl)cc(Cl)c3)C2(Cl)Cl)c1F)c1ccc(F)cc1` (relative stereo) [F47, trans-3-(2,2-Dichloro-3-(3,5-dichlorophenyl)cyclopropane-1-carboxamido)-2-fluoro-N-(4-fluorophenyl)-N-methylbenzamide], in test [1], the “YFM (Biological Results, rating)” value is recorded as “B (More than 0-Less than 80)”. In addition, the pest or weed control at 200 µg/mL in test [2] (setting [5]) was in the range of 0 to 80%. The pest or weed control at 50 µg/cm2 in test [3] (setting [6]) and in test [4] (setting [7]) was 50 to 100% each time.
In the case of `CN(C(=O)c1cc(NC(=O)[C@H]2[C@H](c3ccc(Cl)c(Cl)c3)C2(Cl)Cl)ccc1F)c1ccc(F)cc1F` (relative stereo) [F64, trans-5-(2,2-Dichloro-3-(3,4-dichlorophenyl)cyclopropane-1-carboxamido)-N-(2,4-difluorophenyl)-2-fluoro-N-methylbenzamide], in test [1], the “YFM (Biological Results, rating)” value is reported as “B (More than 0-Less than 80)”. Besides, the pest or weed control at 200 µg/mL in test [2] (setting [5]) lay in the range of 80 to 100%. For the same compound, the pest or weed control at 50 µg/cm2 in test [3] (setting [6]) and in test [4] (setting [7]) was 50 to 100% each time.
Take `O=C(Nc1ccc(F)cc1)c1cc(NC(=O)[C@H]2[C@H](c3cc(Cl)c(Cl)c(Cl)c3)C2(Cl)Cl)ccc1F` (relative stereo) [F29, trans-5-(2,2-Dichloro-3-(3,4,5-trichlorophenyl)cyclopropane-1-carboxamido)-2-fluoro-N-(4-fluorophenyl)benzamide]: in test [1], the “YFM (Biological Results, rating)” value is “A (80-100)”. The pest or weed control at 200 µg/mL in test [2] (setting [5]) fell in the range of 0 to 80%. The pest or weed control at 50 µg/cm2 in test [3] (setting [6]) and in test [4] (setting [7]) was 50 to 100% throughout.
